In assay [1] the target is T1, Bcl-2-related protein A1 (Mus musculus, UniProt Q07440).
T1 sequence (Q07440 whole entry): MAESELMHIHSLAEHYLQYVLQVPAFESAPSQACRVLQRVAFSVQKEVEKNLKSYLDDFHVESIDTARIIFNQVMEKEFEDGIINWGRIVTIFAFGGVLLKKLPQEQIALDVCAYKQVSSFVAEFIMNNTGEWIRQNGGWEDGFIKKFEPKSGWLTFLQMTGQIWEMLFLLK
Put plainly: Bfl-1 binding inhibitors, SAR follow-up, biochemical, fluorescence polarization (AID 1070). (Fluorescence polarisation rises when a labelled molecule tumbles more slowly, as on binding a larger partner.)

Assay [2] deals with Glyceraldehyde-3-phosphate dehydrogenase (Homo sapiens, UniProt P04406).
Assay [3] has as its target T1, Bcl-2-related protein A1. The assay is described as follows: Bfl-1 inhibitors blocking BH3 peptide binding, confirmation, biochemical, TR-FRET, mouse Bfl-1 (AID 621).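 Further: TR-FRET binding of GST-Bfl-1 to FITC-labelled Bid peptide via terbium antibody.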
In assay [4] the target is Peroxisome proliferator-activated receptor gamma/Nuclear receptor coactivator 1 (Homo sapiens, UniProt P37231). Format: functional.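 Further: agonist potency as compounds enhance coactivator SRC-1 recruitment to PPARgamma.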
Assay [5] addresses Peroxisome proliferator-activated receptor gamma/Nuclear receptor coactivator 3 (Homo sapiens, UniProt P37231). Format: functional.
The target in assay [6] is Peroxisome proliferator-activated receptor gamma/Nuclear receptor coactivator 2 (Homo sapiens, UniProt P37231). It is filed as functional.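 Further: agonist potency for raising coactivator recruitment to the receptor.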
The target of assay [7] is T2, Heat shock factor protein 1 (Mus musculus, UniProt P38532).
T2 sequence (P38532 whole entry): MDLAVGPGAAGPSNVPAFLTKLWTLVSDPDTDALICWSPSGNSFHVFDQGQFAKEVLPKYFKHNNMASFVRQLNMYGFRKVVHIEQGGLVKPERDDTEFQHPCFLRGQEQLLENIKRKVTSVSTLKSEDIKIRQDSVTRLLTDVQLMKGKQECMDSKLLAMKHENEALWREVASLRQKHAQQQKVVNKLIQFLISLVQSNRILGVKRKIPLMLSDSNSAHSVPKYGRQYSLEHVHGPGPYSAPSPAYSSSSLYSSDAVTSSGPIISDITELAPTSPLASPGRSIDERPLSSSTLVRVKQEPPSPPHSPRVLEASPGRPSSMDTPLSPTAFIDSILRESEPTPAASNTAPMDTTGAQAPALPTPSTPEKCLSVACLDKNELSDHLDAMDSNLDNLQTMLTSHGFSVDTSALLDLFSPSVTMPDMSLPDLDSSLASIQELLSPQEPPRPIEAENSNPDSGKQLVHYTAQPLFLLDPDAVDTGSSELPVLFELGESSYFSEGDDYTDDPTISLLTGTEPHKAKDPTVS
Put plainly: HSF1 potentiators in luciferase reporter cells, confirmation, cell-based, NIH3T3, luminescence, dose retest (AID 435004).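 Further: stress induced by proteasome inhibitor MG132 added 30 min after compound; luciferase reporter driven by HSF1 response element in NIH3T3 cells; actives raise luminescence as potentiators of the MG132 stress response.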 It is filed as functional.

The next assay deals with Cytochrome P450 2C19 (Homo sapiens, UniProt P33261). Put plainly: qHTS Assay for Inhibitors and Substrates of Cytochrome P450 2C19. [Related pubchem assays: 410 ]. The settings on record: read-out: Potency. Format: ADME. For orientation: qHTS replaces the single test concentration by a dilution series.
Another assay addresses Cytochrome P450 2C9 (Homo sapiens, UniProt P11712). The settings on record: Potency.
A short description of assay [8]: inhibitors of Bluetongue virus cytopathic effect, confirmation, arbovirus, BSR cells (AID 1250).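 Further: protection from viral cytopathic effect measured as cell viability by ATP luminescence.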 It is filed as functional.
The nature of assay [9]: C. albicans growth with fluconazole, confirmation, fluorescence, retest (AID 2467). It is filed as functional, cell-based.
Assay [10] in a line: NIH-3T3 fibroblast cytotoxicity, dose response, cytotoxicity control, cell-based, fluorescence, Alamar Blue, secondary assay (AID 2327).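 Further: NIH-3T3 mouse fibroblasts cultured with fluconazole at 8 µg/mL.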 It is filed as functional. In general terms: The colour change of resazurin is a common sign of viable cells or microbes.
For assay [11], the target named is T3, Alkaline phosphatase, tissue-nonspecific isozyme (Homo sapiens, UniProt P05186).
T3 sequence (P05186 whole entry): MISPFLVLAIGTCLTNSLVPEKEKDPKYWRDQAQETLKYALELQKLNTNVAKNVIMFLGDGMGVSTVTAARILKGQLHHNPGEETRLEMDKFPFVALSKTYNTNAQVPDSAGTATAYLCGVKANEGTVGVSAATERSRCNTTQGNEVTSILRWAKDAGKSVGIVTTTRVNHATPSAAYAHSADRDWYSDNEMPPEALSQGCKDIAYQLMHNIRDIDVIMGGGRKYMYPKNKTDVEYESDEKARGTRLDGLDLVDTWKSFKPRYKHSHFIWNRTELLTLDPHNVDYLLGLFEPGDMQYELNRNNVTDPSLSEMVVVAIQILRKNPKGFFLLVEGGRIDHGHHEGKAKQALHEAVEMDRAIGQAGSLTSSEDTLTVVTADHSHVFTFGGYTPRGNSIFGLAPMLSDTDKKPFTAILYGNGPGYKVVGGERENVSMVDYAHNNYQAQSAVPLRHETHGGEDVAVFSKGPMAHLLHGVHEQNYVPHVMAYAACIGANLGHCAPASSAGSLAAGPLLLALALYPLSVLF

Assay [12] addresses T4, Short transient receptor potential channel 4 (Mus musculus, UniProt Q9QUQ5).
T4 sequence (Q9QUQ5 whole entry): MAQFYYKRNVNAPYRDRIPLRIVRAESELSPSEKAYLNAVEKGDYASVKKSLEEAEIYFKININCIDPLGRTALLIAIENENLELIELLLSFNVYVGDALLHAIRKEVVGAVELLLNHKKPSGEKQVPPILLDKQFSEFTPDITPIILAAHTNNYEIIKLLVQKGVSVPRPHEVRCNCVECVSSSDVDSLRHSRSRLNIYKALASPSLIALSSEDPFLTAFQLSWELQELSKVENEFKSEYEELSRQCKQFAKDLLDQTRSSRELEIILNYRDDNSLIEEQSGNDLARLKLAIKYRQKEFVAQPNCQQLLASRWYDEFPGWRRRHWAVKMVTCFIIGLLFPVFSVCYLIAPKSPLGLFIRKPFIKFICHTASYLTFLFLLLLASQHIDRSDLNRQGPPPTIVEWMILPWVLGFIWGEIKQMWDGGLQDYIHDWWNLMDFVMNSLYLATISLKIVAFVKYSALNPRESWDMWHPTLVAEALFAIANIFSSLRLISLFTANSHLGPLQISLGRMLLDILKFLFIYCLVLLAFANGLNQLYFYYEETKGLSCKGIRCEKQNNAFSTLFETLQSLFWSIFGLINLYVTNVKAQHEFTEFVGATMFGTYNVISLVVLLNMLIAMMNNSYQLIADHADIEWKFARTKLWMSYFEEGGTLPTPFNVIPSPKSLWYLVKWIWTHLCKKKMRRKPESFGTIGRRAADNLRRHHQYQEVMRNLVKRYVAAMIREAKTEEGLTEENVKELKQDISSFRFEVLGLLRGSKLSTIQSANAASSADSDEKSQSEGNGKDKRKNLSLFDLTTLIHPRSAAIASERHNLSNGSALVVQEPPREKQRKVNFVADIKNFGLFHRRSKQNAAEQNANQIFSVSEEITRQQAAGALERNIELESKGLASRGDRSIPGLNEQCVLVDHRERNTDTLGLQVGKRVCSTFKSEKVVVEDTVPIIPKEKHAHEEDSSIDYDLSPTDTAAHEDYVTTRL
Put plainly: mouse TRPC4 channel activators, dose response, cell-based, HEK293 TRPC4/mu-opioid, Fluo-4 calcium (AID 434937). Format: functional.

Assay [13] addresses Sphingosine 1-phosphate receptor 2 (Homo sapiens, UniProt O95136). The assay is described as follows: Dose Response Cell Based Assay for Agonists of the S1P2 Receptor of Purchased Analogues. [Related pubchem assays: 729, 843, 854, 736 ]. It is filed as functional.

Activity calls are given as the source filed them. A value given as a limit tells only on which side of the number the result lay.

Chain of Peroxisome proliferator-activated receptor gamma/Nuclear receptor coactivator 3 (P37231 whole entry): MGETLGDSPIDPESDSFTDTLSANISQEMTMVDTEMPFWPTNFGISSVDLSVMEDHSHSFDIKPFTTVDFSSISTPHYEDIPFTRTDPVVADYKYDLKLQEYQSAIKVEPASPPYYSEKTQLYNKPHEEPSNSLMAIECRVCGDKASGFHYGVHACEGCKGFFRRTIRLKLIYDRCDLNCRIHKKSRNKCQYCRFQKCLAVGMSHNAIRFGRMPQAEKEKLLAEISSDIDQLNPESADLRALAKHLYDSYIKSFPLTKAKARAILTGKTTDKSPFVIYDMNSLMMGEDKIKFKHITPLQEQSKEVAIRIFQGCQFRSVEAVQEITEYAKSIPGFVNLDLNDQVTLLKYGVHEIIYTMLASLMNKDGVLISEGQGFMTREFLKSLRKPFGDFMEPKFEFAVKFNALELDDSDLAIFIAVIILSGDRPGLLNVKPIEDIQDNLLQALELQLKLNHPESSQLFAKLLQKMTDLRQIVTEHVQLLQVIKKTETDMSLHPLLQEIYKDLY
Chain of Peroxisome proliferator-activated receptor gamma/Nuclear receptor coactivator 3 (Q9Y6Q9 whole entry, further chain): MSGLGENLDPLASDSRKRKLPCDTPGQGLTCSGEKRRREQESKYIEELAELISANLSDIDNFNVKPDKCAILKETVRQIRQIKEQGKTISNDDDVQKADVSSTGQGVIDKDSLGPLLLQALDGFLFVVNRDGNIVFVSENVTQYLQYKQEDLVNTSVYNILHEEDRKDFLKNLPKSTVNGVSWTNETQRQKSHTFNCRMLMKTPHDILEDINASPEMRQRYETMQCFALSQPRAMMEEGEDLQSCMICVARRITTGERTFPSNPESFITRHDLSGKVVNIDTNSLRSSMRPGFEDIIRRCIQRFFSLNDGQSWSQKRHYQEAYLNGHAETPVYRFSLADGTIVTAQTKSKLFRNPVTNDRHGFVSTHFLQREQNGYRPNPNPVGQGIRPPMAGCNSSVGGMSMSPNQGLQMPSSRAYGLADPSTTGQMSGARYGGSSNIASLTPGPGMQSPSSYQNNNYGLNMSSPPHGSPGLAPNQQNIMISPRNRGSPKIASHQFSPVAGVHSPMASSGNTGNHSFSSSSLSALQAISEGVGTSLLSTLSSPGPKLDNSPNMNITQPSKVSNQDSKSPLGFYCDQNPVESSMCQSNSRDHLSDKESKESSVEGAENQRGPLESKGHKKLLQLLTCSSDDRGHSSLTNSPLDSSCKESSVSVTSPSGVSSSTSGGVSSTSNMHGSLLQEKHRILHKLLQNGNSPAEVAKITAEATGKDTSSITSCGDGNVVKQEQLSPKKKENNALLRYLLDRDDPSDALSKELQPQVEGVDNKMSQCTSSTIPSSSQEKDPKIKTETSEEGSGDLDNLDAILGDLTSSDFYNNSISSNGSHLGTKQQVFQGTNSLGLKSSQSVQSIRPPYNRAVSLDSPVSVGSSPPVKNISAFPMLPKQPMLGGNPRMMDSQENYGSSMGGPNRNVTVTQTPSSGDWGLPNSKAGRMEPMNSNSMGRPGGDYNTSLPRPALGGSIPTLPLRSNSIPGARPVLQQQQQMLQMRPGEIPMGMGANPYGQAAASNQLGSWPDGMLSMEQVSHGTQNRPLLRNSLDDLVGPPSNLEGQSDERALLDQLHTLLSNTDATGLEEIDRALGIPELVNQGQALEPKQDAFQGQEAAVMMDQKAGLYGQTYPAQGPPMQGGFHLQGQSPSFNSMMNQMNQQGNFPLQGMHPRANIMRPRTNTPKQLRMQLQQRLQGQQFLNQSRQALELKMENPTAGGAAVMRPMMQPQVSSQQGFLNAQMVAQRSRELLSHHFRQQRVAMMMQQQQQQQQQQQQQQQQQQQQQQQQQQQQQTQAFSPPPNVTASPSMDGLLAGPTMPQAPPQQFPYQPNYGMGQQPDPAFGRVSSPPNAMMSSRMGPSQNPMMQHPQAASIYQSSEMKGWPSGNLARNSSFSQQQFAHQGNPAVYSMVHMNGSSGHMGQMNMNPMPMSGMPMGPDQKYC
Chain of Peroxisome proliferator-activated receptor gamma/Nuclear receptor coactivator 1 (P37231 whole entry): as the sequence (P37231 whole entry) above
Chain of Peroxisome proliferator-activated receptor gamma/Nuclear receptor coactivator 1 (Q15788 whole entry, further chain): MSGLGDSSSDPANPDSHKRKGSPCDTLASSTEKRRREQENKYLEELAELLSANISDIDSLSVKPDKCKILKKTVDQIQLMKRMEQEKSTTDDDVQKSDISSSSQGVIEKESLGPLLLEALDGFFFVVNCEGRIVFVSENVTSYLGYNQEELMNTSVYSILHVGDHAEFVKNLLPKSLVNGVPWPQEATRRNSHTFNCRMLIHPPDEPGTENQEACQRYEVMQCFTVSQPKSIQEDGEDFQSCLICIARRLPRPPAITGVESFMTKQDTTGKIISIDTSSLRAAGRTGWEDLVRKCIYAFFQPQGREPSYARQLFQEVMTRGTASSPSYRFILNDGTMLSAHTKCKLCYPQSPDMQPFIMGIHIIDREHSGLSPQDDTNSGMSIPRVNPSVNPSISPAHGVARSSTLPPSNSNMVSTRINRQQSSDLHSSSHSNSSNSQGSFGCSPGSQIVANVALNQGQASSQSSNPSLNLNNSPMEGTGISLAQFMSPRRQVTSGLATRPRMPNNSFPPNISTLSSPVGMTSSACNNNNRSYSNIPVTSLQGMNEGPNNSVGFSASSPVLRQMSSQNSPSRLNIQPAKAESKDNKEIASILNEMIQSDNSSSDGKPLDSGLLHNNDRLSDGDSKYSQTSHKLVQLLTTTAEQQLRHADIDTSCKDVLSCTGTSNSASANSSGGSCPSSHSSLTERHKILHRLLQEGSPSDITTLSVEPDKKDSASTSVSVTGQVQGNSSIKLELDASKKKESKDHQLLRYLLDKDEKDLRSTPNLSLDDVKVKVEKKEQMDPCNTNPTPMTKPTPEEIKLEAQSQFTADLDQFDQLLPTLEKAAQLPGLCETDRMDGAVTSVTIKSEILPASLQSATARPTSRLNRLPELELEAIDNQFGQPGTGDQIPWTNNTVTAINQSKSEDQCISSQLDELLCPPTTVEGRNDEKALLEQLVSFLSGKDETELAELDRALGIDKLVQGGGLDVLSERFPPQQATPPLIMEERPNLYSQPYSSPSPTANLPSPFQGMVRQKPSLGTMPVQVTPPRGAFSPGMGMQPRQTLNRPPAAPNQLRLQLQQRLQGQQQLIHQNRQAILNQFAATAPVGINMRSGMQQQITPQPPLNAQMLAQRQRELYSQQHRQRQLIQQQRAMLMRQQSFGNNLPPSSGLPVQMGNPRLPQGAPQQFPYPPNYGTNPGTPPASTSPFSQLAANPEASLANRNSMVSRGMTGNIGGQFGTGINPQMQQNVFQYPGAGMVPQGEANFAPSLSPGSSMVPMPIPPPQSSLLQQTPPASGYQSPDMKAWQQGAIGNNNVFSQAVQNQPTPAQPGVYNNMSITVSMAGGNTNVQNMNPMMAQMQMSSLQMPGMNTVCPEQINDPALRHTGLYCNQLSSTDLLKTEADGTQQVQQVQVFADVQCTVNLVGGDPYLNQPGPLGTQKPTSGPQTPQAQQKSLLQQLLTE
Chain of Glyceraldehyde-3-phosphate dehydrogenase (P04406 whole entry): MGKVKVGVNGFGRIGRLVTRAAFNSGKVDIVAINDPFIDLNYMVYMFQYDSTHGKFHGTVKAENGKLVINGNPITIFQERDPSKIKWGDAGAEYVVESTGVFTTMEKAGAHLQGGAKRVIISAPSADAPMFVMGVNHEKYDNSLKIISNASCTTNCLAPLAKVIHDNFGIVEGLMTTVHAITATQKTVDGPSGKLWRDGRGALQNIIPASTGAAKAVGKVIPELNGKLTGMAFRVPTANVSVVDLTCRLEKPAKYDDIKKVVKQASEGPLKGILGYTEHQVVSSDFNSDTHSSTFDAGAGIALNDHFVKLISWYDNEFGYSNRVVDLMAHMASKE
Chain of Sphingosine 1-phosphate receptor 2 (O95136 whole entry): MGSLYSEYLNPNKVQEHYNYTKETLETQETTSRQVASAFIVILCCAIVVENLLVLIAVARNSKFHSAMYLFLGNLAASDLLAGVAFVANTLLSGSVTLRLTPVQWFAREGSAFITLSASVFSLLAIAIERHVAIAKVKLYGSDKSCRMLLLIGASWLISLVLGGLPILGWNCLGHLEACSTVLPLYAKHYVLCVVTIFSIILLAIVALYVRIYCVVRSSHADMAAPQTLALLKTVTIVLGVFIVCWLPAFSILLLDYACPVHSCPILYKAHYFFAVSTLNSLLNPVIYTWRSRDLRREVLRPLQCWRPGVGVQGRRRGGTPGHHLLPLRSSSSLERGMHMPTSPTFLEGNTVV
Chain of Cytochrome P450 2C9 (P11712 whole entry): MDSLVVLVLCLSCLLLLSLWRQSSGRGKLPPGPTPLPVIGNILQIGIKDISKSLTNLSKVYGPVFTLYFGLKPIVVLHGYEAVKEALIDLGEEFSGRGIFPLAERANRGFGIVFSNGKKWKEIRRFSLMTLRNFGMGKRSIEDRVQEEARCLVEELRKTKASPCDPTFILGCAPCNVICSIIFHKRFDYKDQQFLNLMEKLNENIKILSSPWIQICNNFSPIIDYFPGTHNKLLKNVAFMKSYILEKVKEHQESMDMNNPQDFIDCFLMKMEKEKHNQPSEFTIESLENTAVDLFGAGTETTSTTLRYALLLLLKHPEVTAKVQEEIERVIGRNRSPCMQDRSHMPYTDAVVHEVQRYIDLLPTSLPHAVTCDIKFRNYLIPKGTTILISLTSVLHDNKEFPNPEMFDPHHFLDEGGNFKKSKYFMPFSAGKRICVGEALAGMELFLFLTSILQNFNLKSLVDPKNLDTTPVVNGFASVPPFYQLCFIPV

What is called IC50 is the point on the concentration scale where inhibition reaches its midpoint. As to `CN1CCN(C2=C(Cl)C(=O)N(c3cccc([N+](=O)[O-])c3)C2=O)CC1`, the IC50 is 6.79 µM (active) on Bcl-2-related protein A1 [1], > 100 µM (not active) in assay [2] and 3.94 µM (active) at Bcl-2-related protein A1 [3].

Regarding `Cc1cccc(N2C(=O)C(Cl)=C(N3CCN(CCOCCO)CC3)C2=O)c1`, the IC50 is 4.46 µM (active) on Bcl-2-related protein A1 [1], > 100 µM (not active) in [2] and 6.43 µM (active) at Bcl-2-related protein A1 [3].

For orientation: EC50 means the concentration giving half of the maximal effect. For `O=C(COC(=O)c1ccccc1C(=O)c1ccccc1)NCCc1ccccc1`, the EC50 in assay [4] was > 79.4 µM (not active); in [5] it was > 79.4 µM (not active); in assay [6] it was > 79.4 µM (not active); in [7] it was > 260 µM (inactive).

For the molecule `CC(C)[C@@H](CC(=O)N[C@@H]1CCCC[C@H]1C(=O)N[C@H](CC(=O)N[C@@H](CCC(=O)O)CC(=O)O)Cc1ccccc1)NC(=O)C[C@H](CO)NC(=O)[C@@H]1CCCC[C@H]1N`, the AC50 on Cytochrome P450 2C19 and on Cytochrome P450 2C9 was 39.8 µM (inconclusive) each time.

As for `O=C(CCCn1c(=O)[nH]c2ccc(Br)cc2c1=O)NCc1ccc(Cl)cc1`, the EC50 in assay [4], in assay [5] and in assay [6] was > 79.4 µM (not active) throughout.

For the molecule `Cc1ccc2nc(-c3ccccc3Cl)cc(C(=O)Nc3cc(C)on3)c2c1`, the half-maximal inhibitory concentration (IC50) in assay [8] was 45.5 µM (active). Moreover, the EC50 in [9] was 3.33 µM (active); in assay [10], > 160 µM (inactive).

Take `COc1ccc(-n2cc(CNCCc3nc(C)c[nH]3)c(-c3ccccc3Cl)n2)cc1`: the EC50 in [11] is 66.1 µM (not active); in assay [12], 5.96 µM (active).

Regarding `Cc1cc(C(=O)COC(=O)CN2C(=O)NC(C)(C)C2=O)c(C)n1Cc1ccccc1`, in assay [13], the EC50 is reported as > 30 µM (not active).
